Values quoted from earlier work as cited in PubChem BioAssay AID1259409 (Chemical Carcinogenesis Research Information System (CCRIS), 2018).

Tested on: rodent chemically induced tumor inhibition, incidence and multiplicity
Assay: CCRIS tumor inhibitor studies
Settings: Route [Inhibitor]: ORAL

O=[Se](O)O
tumour outcome (control, treated, inhibition, significance) (Carcinogen: N-METHYL-N-NITROSOUREA, 684-93-5, Dose [Inhibitor]: 5 MG IN DIET DAILY STARTING AT AGE 5 WK 2 WK PRIOR TO FIRST CARCINOGEN TREATMENT AND CONTINUING FOR DURATION OF STUDY (S, Species: HAMSTER, Strain/Sex: SYRIAN/MALE, Target Tissue: Type of Lesion: TRACHEA: NEOPLASM, Dose [Carcinogen]: 0.5% SOLUTION (PH 5) 1/WK FOR 12 WK, Promoter: NONE USED): 11/34 (32%), 11/31 (35%), -9%, not significant | tumour outcome (control, treated, inhibition, significance) (Carcinogen: N-METHYL-N-NITROSOUREA, 684-93-5, Dose [Inhibitor]: 5 MG/KG IN DIET DAILY STARTING 7 D AFTER CARCINOGEN TREATMENT AND CONTINUING FOR DURATION OF STUDY (STUDY DURATION: 90 D, Species: RAT, Strain/Sex: SPRAGUE-DAWLEY/FEMALE, Target Tissue: Type of Lesion: MAMMARY GLAND: ADENOCARCINOMA, Dose [Carcinogen]: 50 MG/KG BW IN 0.9% SALINE ONCE AT 50 D OF AGE, Promoter: NONE): 95%, 85%, 11%, not calculated | tumour outcome (control, treated, inhibition, significance) (Carcinogen: N-NITROSOBIS(2-OXOPROPYL)AMINE, 60599-38-4, Dose [Inhibitor]: 0, 4 PPM IN DRINKING WATER BEGINNING POST CARCINOGEN TREATMENT AND CONTINUING FOR 37 WK (STUDY DURATION: 40 WK), Species: HAMSTER, Strain/Sex: SYRIAN/FEMALE, Target Tissue: Type of Lesion: PANCREAS: ADENOCARCINOMA, Dose [Carcinogen]: 10 MG/KG 1/WK FOR 3 WK, Promoter: NONE USED): 11/28 (39%), 9/30 (30%), 23%, not calculated | tumour outcome (control, treated, inhibition, significance) (Carcinogen: NITROSOMETHYL-3-CARBOXYPROPYLAMINE, 61445-55-4, Dose [Inhibitor]: 0, 0.35 PPM IN DIET BEGINNING 1 WK PRIOR TO CARCINOGEN DOSE AND CONTINUED FOR DURATION OF STUDY (STUDY DURATION: LIFETIM, Species: RAT, Strain/Sex: F344/FEMALE, Target Tissue: Type of Lesion: BLADDER: TUMORS, Dose [Carcinogen]: 20 ML OF A 600 MG/L SOLUTION IN DRINKING WATER 5 D/WK FOR 28 WK, Promoter: NONE USED): 18/20 (90%), 18/20 (90%), 0%, not significant | tumour outcome (control, treated, inhibition, significance) (Carcinogen: NITROSOMETHYL-3-CARBOXYPROPYLAMINE, 61445-55-4, Dose [Inhibitor]: 0, 0.7 PPM IN DIET BEGINNING 1 WK PRIOR TO CARCINOGEN DOSE AND CONTINUED FOR DURATION OF STUDY (STUDY DURATION: LIFETIME, Species: RAT, Strain/Sex: F344/FEMALE, Target Tissue: Type of Lesion: BLADDER: TUMORS, Dose [Carcinogen]: 20 ML OF A 600 MG/L SOLUTION IN DRINKING WATER 5 D/WK FOR 28 WK, Promoter: NONE USED): 18/20 (90%), 20/20 (100%), -11%, not significant | tumour outcome (control, treated, inhibition, significance) (Carcinogen: NITROSOMETHYL-3-CARBOXYPROPYLAMINE, 61445-55-4, Dose [Inhibitor]: 0, 1.4 PPM IN DIET BEGINNING 1 WK PRIOR TO CARCINOGEN DOSE AND CONTINUED FOR DURATION OF STUDY (STUDY DURATION: LIFETIME, Species: RAT, Strain/Sex: F344/FEMALE, Target Tissue: Type of Lesion: BLADDER: TUMORS, Dose [Carcinogen]: 20 ML OF A 600 MG/L SOLUTION IN DRINKING WATER 5 D/WK FOR 28 WK, Promoter: NONE USED): 18/20 (90%), 20/20 (100%), -11%, not significant | tumour outcome (control, treated, inhibition, significance) (Carcinogen: NITROSOMETHYL-3-CARBOXYPROPYLAMINE, 61445-55-4, Dose [Inhibitor]: 0, 2.1 PPM IN DIET BEGINNING 1 WK PRIOR TO CARCINOGEN DOSE AND CONTINUED FOR DURATION OF STUDY (STUDY DURATION: LIFETIME, Species: RAT, Strain/Sex: F344/FEMALE, Target Tissue: Type of Lesion: BLADDER: TUMORS, Dose [Carcinogen]: 20 ML OF A 600 MG/L SOLUTION IN DRINKING WATER 5 D/WK FOR 28 WK, Promoter: NONE USED): 18/20 (90%), 17/20 (85%), 6%, not significant | tumour outcome (control, treated, inhibition, significance) (Carcinogen: NITROSOMETHYLCYCLOHEXYLAMINE, 5432-28-0, Dose [Inhibitor]: 0, 0.35 PPM IN DIET BEGINNING 1 WK PRIOR TO CARCINOGEN DOSE AND CONTINUED FOR DURATION OF STUDY (STUDY DURATION: LIFETIM, Species: RAT, Strain/Sex: F344/FEMALE, Target Tissue: Type of Lesion: ESOPHAGUS: TUMORS, Dose [Carcinogen]: 20 ML OF A 5 MG/L SOLUTION IN DRINKING WATER 5 D/WK FOR 28 WK, Promoter: NONE USED): 17/20 (85%), 17/20 (85%), 0%, not significant | tumour outcome (control, treated, inhibition, significance) (Carcinogen: NITROSOMETHYLCYCLOHEXYLAMINE, 5432-28-0, Dose [Inhibitor]: 0, 0.7 PPM IN DIET BEGINNING 1 WK PRIOR TO CARCINOGEN DOSE AND CONTINUED FOR DURATION OF STUDY (STUDY DURATION: LIFETIME, Species: RAT, Strain/Sex: F344/FEMALE, Target Tissue: Type of Lesion: ESOPHAGUS: TUMORS, Dose [Carcinogen]: 20 ML OF A 5 MG/L SOLUTION IN DRINKING WATER 5 D/WK FOR 28 WK, Promoter: NONE USED): 17/20 (85%), 17/20 (85%), 0% | tumour outcome (control, treated, inhibition, significance) (Carcinogen: NITROSOMETHYLCYCLOHEXYLAMINE, 5432-28-0, Dose [Inhibitor]: 0, 1.4 PPM IN DIET BEGINNING 1 WK PRIOR TO CARCINOGEN DOSE AND CONTINUED FOR DURATION OF STUDY (STUDY DURATION: LIFETIME, Species: RAT, Strain/Sex: F344/FEMALE, Target Tissue: Type of Lesion: ESOPHAGUS: TUMORS, Dose [Carcinogen]: 20 ML OF A 5 MG/L SOLUTION IN DRINKING WATER 5 D/WK FOR 28 WK, Promoter: NONE USED): 17/20 (85%), 16/20 (80%), 6%, not significant | tumour outcome (control, treated, inhibition, significance) (Carcinogen: NITROSOMETHYLCYCLOHEXYLAMINE, 5432-28-0, Dose [Inhibitor]: 0, 2.1 PPM IN DIET BEGINNING 1 WK PRIOR TO CARCINOGEN DOSE AND CONTINUED FOR DURATION OF STUDY (STUDY DURATION: LIFETIME, Species: RAT, Strain/Sex: F344/FEMALE, Target Tissue: Type of Lesion: ESOPHAGUS: TUMORS, Dose [Carcinogen]: 20 ML OF A 5 MG/L SOLUTION IN DRINKING WATER 5 D/WK FOR 28 WK, Promoter: NONE USED): 17/20 (85%), 18/20 (90%), -6%, not significant | tumour outcome (control, treated, inhibition, significance) (Carcinogen: NONE USED, Dose [Inhibitor]: 0.5 PPM IN DIET DAILY STARTING AT AGE 6 WK AND CONTINUING FOR DURATION OF STUDY (STUDY DURATION: 13 MO), Species: MOUSE, Strain/Sex: BALB/FEMALE, Target Tissue: Type of Lesion: MAMMARY GLAND: ADENOCARCINOMA, Promoter: NONE USED): 15/30 (50%), 8/30 (27%), 46%, p<0.05 | tumour outcome (control, treated, inhibition, significance) (Carcinogen: NONE USED, Dose [Inhibitor]: 2 PPM IN DIET DAILY STARTING AT AGE 6 WK AND CONTINUING FOR DURATION OF STUDY (STUDY DURATION: 13 MO), Species: MOUSE, Strain/Sex: BALB/FEMALE, Target Tissue: Type of Lesion: MAMMARY GLAND: ADENOCARCINOMA, Promoter: NONE USED): 15/30 (50%), 6/30 (20%), 60%, p<0.05 | outcome (Carcinogen: UV-B IRRADIATION, Dose [Inhibitor]: 0, 0.5 MG/KG DIET FOR 29 WK BEGINNING 1 WK PRIOR TO CARCINOGEN TREATMENT (STUDY DURATION: 29 WK), Species: MOUSE, Strain/Sex: SKH:HR-1/FEMALE, Target Tissue: Type of Lesion: SKIN: TUMOR, Dose [Carcinogen]: 90 MJ/CM2 3/WK FOR 20 WK, Promoter: NONE USED): 29, 17, 41%, p<0.05 | tumour outcome (control, treated, inhibition, significance) (Dose [Inhibitor]: 0, 3 PPM IN DRINKING WATER AD LIBITUM FOR DURATION OF STUDY (STUDY DURATION: 79 WK), Species: RAT, Strain/Sex: WISTAR/MALE, Target Tissue: Type of Lesion: LIVER: CARCINOMA, Dose [Carcinogen]: 126 UG/WK IN DRINKING WATER FOR 27 WK, Promoter: NONE USED): 61%, 0%, 100%, not calculated | tumour outcome (control, treated, inhibition, significance) (Dose [Inhibitor]: 0, 6 PPM IN DRINKING WATER AD LIBITUM FOR DURATION OF STUDY (STUDY DURATION: 79 WK), Species: RAT, Strain/Sex: WISTAR/MALE, Target Tissue: Type of Lesion: LIVER: CARCINOMA, Dose [Carcinogen]: 126 UG/WK IN DRINKING WATER FOR 27 WK, Promoter: NONE USED): 61%, 0%, 100%, not calculated
